Source: patent US20070275936A1, “Formulations and Treatment Methods” (priority 1998, published 2007)
Marks after values point to notes of the source that are not given here.

Experiments:
HIV-1 viral RNA = assay: Human HIV clinical protocol: viral load (bDNA); assay type: in vivo; settings: after three 5-day courses of intermittent dosing over 153 days
Experimental: Otherwise untreated patients with CD4 counts of ≧200/μL and HIV-1 viral RNA between 5,000 and 1,000,000 copies/mL (branched-DNA, version 3.0, Bayer, Tarrytown, N.Y.) provided informed consent and were enrolled into a Phase I/II dose-escalation study of the safety and efficacy of intramuscular injections of BrEA. The protocol was conducted in South Africa. In the first cohort, four patients received an initial injection of 1 mL (50 mg), followed by a safety and pharmocokinetic study for seven days, and then received five daily injections of 1 mL (50 mg). The second cohort of 8 patients was randomized in a 1:2 ratio to receive either 50 mg (1 mL) or 100 mg (2 mL) on the same schedule. […]
CD4 counts were assessed using a FACScount (BDIS), and viral loads were measured using the bDNA assay (Bayer). […]
Statistical analysis of changes in surface phenotypes, hematological, and viral parameters were performed by calculating the area under the curve (AUC) of the percentage difference from baselines (phenotype), percentage difference from the mean of screen and baseline values (hematology), or log10 change from the mean of screen and baseline values (plasma viral RNA) for individual patients. AUC were calculated using the actual number of days between analysis visits for each patient. […]

Immune cell subsets = assay: Human HIV clinical protocol: immune phenotypes by flow cytometry; assay type: in vivo; settings: for CD8+CD16+CD38+ cells, median: Baseline 8; for CD8−CD16+ cells, median: Baseline 53; for CD8+CD69+CD25− cells, median: Baseline 18; for Activated T cells (CD8+ CD69+ CD25−), median: about 1 week after last dose
Experimental: Patients infected with HIV are dosed with an i.m. injection of 25-200 mg of BrEA using a formulation containing 100 mg/mL BrEA, PEG300 ˜30% v/v, propylene glycol 30% v/v, benzyl benzoate 30% v/v and benzyl alcohol 2% v/v. The pateints are dosed once per day for 5 consecutive days followed by a period of about 28 days or longer with no BrEA treatment. The patients were them provided with one more course of 5 consecutive days of dosing with BrEA, followed by a non-dosing period of at least about 28 days. Up to 8 rounds of 5-day treatments, followed by at least 28 days of no dosing were provided. Immunological responses were then assayed using blood or plasma samples from the patients by flow cytometry and other known analytical methods. Immune cell subsets or other measured markers were assayed within 24 hours of obtaining the sample from each patient. Labeled antibodies, e.g., anti-CD antigen antibodies conjugated with fluorescent dyes (FITC, phycoerythrin, allophycocyanin or PerCP), were prepared and used essentially according to standard protocols using commercially available reagents, see, e.g., PharMingen, 1998 Research Products Catalog, technical protocols at pages 732-774, human cell surface molecules at pages 182-295 and mouse, rat and hamster cell surface molecules at pages 2-173 and cytokine and chemokine reagents at pages 344-489.
Otherwise untreated patients with CD4 counts of ≧200/μL and HIV-1 viral RNA between 5,000 and 1,000,000 copies/mL (branched-DNA, version 3.0, Bayer, Tarrytown, N.Y.) provided informed consent and were enrolled into a Phase I/II dose-escalation study of the safety and efficacy of intramuscular injections of BrEA. The protocol was conducted in South Africa. In the first cohort, four patients received an initial injection of 1 mL (50 mg), followed by a safety and pharmocokinetic study for seven days, and then received five daily injections of 1 mL (50 mg). The second cohort of 8 patients was randomized in a 1:2 ratio to receive either 50 mg (1 mL) or 100 mg (2 mL) on the same schedule. Patients were allowed at the discretion of the investigators to receive up to three additional courses each, repeated after 28 days of observation. The protocol was amended to introduce an improved formulation, and to extend the initial pharmacokinetic and safety period to 14 days, the observation period following the five daily doses to 35 days, and to allow up to 7 treatment courses. A third cohort of 24 patients was randomized in a 1:2:4 ratio to receive either 50 mg (0.5 mL), 100 mg (1 mL), or 200 mg (2 mL) of BrEA. The patients were all male, since initial safety studies are not permitted in females in South Africa. Within the group of 39 patients randomized, the ethnic demographic included was 18 Caucasian, 17 African, and 4 other. The average age was 34 (range 20-63), the average initial CD4/μL was 434 (range 176-1210), and the average viral load was 13,772 copies/mL (range 3,020-158,489). Patients underwent physical examinations and provided samples for chemistry, hematology, virology and immunology testing approximately every two weeks.
Course 1, 2 and 3 refer to each 5 consecutive day treatment regimen of one daily injection with BrEA (50 or 100 mg BrEA per injection). The formulation contained 100 mg/mL BrEA, PEG300 ˜30% v/v, propylene glycol 30% v/v, benzyl benzoate 30% v/v and benzyl alcohol 2% v/v. The data shown below was obtained from patient blood samples at baseline (on the day dosing was initiated) and at various times after the patients received at least one dose of BrEA. […] The patients in this protocol initially had CD4 counts of at least 200 per mm^3 and a serum HIV RNA load of 5,000 to 1×10^6 RNA copies/mL. […] Average CD4 IL-10 production dropped from a median of 66% to 4% of the cells, while CD4 IFNγ went from a median of 8% to 63%, leading to a Th2 to a Th1 shift in cytokine production. […]

## C[C@]12CC[C@H](O)C[C@@H]1CC[C@@H]1[C@@H]2CC[C@]2(C)C(=O)[C@H](Br)C[C@@H]12 [BrEA, 16α-bromo-3β-hydroxy-5α-androstane-17-one]
HIV-1 viral RNA
  change in viral load: no overall decrease in viral load
Immune cell subsets; CD3+ CD8+ CD69+ CD25−, n=36, p=0.049
  Early Activation-Stage CD8+ T cells: Time-averaged AUC Increase Mean ± SEM: 67 ± 33%
Immune cell subsets; CD8+ CD16+, n=36, p=0.19
  LAK: Time-averaged AUC Increase Mean ± SEM: 13 ± 9%
Immune cell subsets; CD8−CD16+, n=36, p=0.20
  NK: Time-averaged AUC Increase Mean ± SEM: 29 ± 22%
Immune cell subsets; Course 1, Baseline 3.2, n=10, p<0.001
  Lin− HLA-DR+ CD11c+/CD123+ cells, median: 17.7 cells/μL
Immune cell subsets; Course 1, n=10, p<0.001
  CD8+CD16+CD38+ cells, median: 27 cells/μL
Immune cell subsets; Course 1, n=12, p<0.001
  CD8−CD16+ cells, median: 253 cells/μL
Immune cell subsets; Course 1, HIV patients, 50 or 100 mg i.m. daily ×5, n=13, p<0.001
  CD8+CD69+CD25− cells, median: 54 cells/μL
Immune cell subsets; Course 2, n=4, p=0.047
  CD8+CD16+CD38+ cells, median: 28 cells/μL
Immune cell subsets; Course 2, n=9, p<0.001
  CD8+CD69+CD25− cells, median: 56 cells/μL
Immune cell subsets; Course 2, n=4, p=0.02
  CD8−CD16+ cells, median: 288 cells/μL
Immune cell subsets; Course 2, baseline value from initiation of 2nd course = 6.4, n=5, p=0.02
  Lin− HLA-DR+ CD11c+/CD123+ cells, median: 11.4^c cells/μL
Immune cell subsets; Course 3, n=4, p=0.02
  CD8+CD16+CD38+ cells, median: 25 cells/μL
Immune cell subsets; Course 3, n=4, p=0.04
  CD8+CD69+CD25− cells, median: 75 cells/μL
Immune cell subsets; Course 3, n=2, p=0.04
  CD8−CD16+ cells, median: 249 cells/μL
Immune cell subsets; Course 3, baseline value from initiation of 2nd course = 6.4, n=4, p=0.04
  Lin− HLA-DR+ CD11c+/CD123+ cells, median: 14.7^c cells/μL
Immune cell subsets; Lineage− HLA-DR+ CD11c+, n=31, p=0.010
  DC1 (CD11c+) Dendritic Cells: Time-averaged AUC Increase Mean ± SEM: 50 ± 18%
Immune cell subsets; Lineage− HLA-DR+ CD123+, n=31, p=0.021
  DC2 (CD123+) Dendritic Cells: Time-averaged AUC Increase Mean ± SEM: 32 ± 13%
Immune cell subsets; Treatment 1, treated, baseline 19
  Activated T cells (CD8+ CD69+ CD25−), median: 54 (n = 13, p < 0.001) cells/μL
Immune cell subsets; Treatment 1, treated, baseline 3.5
  Dendritic cells (Lin− HLA-DR+ CD123+/CD11+), median: 18 (n = 10, p = 0.001) cells/μL
Immune cell subsets; Treatment 1, treated, baseline 8
  LAK cells (CD8+ CD16+ CD38+), median: 27 (n = 10, p < 0.001) cells/μL
Immune cell subsets; Treatment 1, treated, baseline 54
  NK (ADCC responders) cells (CD8− CD16+), median: 253 (n = 12, p < 0.001) cells/μL
Immune cell subsets; Treatment 2, treated, baseline 19
  Activated T cells (CD8+ CD69+ CD25−), median: 56 (n = 9, p < 0.001) cells/μL
Immune cell subsets; Treatment 2, treated, baseline 6.5
  Dendritic cells (Lin− HLA-DR+ CD123+/CD11+), median: 11.5 (n = 5, p = 0.02) cells/μL
Immune cell subsets; Treatment 2, treated, baseline 12
  LAK cells (CD8+ CD16+ CD38+), median: 28 (n = 4, p = 0.04) cells/μL
Immune cell subsets; Treatment 2, treated, baseline 58
  NK (ADCC responders) cells (CD8− CD16+), median: 285 (n = 4, p = 0.02) cells/μL
Immune cell subsets; Treatment 3, treated, baseline 18
  Activated T cells (CD8+ CD69+ CD25−), median: 74 (n = 4, p = 0.04) cells/μL
Immune cell subsets; Treatment 3, treated, baseline 6
  Dendritic cells (Lin− HLA-DR+ CD123+/CD11+), median: 55 (n = 4, p = 0.04) cells/μL
Immune cell subsets; Treatment 3, treated, baseline 12
  LAK cells (CD8+ CD16+ CD38+), median: 25 (n = 4, p = 0.02) cells/μL
Immune cell subsets; Treatment 3, treated, baseline 56
  NK (ADCC responders) cells (CD8− CD16+), median: 250 (n = 2, p = 0.04) cells/μL
Immune cell subsets; after one course (5 daily i.m. injections), dropped from 66%
  CD4 IL-10 production, median % of the cells: 4%
Immune cell subsets; after one course (5 daily i.m. injections), went from 8%
  CD4 IFNγ, median % of the cells: 63%
Immune cell subsets; analysis visit day 22
  DC1 (CD11c+) Dendritic Cells: Maximum Analysis Visit Responses Mean: 58% (22)
Immune cell subsets; analysis visit day 36
  NK: Maximum Analysis Visit Responses Mean: 41% (36)
Immune cell subsets; analysis visit day 67
  LAK: Maximum Analysis Visit Responses Mean: 34% (67)
Immune cell subsets; analysis visit day 80
  DC2 (CD123+) Dendritic Cells: Maximum Analysis Visit Responses Mean: 44% (80)
Immune cell subsets; analysis visit day 139
  Total Dendritic Cells: Maximum Analysis Visit Responses Mean: 38% (139)
Immune cell subsets; analysis visit day 153
  Early Activation-Stage CD8+ T cells: Maximum Analysis Visit Responses Mean: 162% (153)
Immune cell subsets; change from baseline, n=31
  DC1 (CD11c+) Dendritic Cells: Maximum Individual Patient Responses Mean (range): 130% (−20 to 870%)
  DC2 (CD123+) Dendritic Cells: Maximum Individual Patient Responses Mean (range): 100% (−30 to 480%)
  Total Dendritic Cells: Maximum Individual Patient Responses Mean (range): 100% (−20 to 600%)
Immune cell subsets; change from baseline, n=36
  Early Activation-Stage CD8+ T cells: Maximum Individual Patient Responses Mean (range): 210% (0 to 3,090%)
  LAK: Maximum Individual Patient Responses Mean (range): 90% (−90 to 630%)
  NK: Maximum Individual Patient Responses Mean (range): 140% (−40 to 1,220%)
Immune cell subsets; i.m. BrEA, HIV patients, CD3+ CD8+ and CD69+ or CD25+, n=36, p=0.005
  Activated CD8+ T cells: Time-averaged AUC Increase Mean ± SEM: 15 ± 5%
Immune cell subsets; i.m. BrEA, HIV patients, analysis visit day 22
  Activated CD8+ T cells: Maximum Analysis Visit Responses Mean: 25% (22)
Immune cell subsets; i.m. BrEA, HIV patients, change from baseline, n=36
  Activated CD8+ T cells: Maximum Individual Patient Responses Mean (range): 70% (−10 to 340%)
Immune cell subsets; n=31, p=0.003
  DC1 to DC2 Ratio: Time-averaged AUC Increase Mean ± SEM: 44 ± 13%
Immune cell subsets; n=31, p=0.010
  Total Dendritic Cells: Time-averaged AUC Increase Mean ± SEM: 38 ± 14%
